Measurements as given in publication PMC9812224, “Analysis of the conformational heterogeneity of the Rieske iron–sulfur protein in complex III2 by cryo-EM” (IUCrJ, 2023).

Biological target: T1, CIII2 (respiratory complex III dimer, cytochrome bc1 complex) (Yarrowia lipolytica, UniProt Q9B6D0)
T1 construct: gene COB; native homodimeric complex from DDM-solubilized mitochondrial membranes after depletion of His-tagged complex I; untagged; ion exchange and size exclusion; with Cytochrome c1, heme protein, mitochondrial; Cytochrome b-c1 complex subunit 1, mitochondrial; Cytochrome b-c1 complex subunit 2, mitochondrial; Cytochrome b-c1 complex subunit 6; Cytochrome b-c1 complex subunit 7; Cytochrome b-c1 complex subunit 8; Cytochrome b-c1 complex subunit 9; Cytochrome b-c1 complex subunit 10
T1 sequence (Q9B6D0 1-385): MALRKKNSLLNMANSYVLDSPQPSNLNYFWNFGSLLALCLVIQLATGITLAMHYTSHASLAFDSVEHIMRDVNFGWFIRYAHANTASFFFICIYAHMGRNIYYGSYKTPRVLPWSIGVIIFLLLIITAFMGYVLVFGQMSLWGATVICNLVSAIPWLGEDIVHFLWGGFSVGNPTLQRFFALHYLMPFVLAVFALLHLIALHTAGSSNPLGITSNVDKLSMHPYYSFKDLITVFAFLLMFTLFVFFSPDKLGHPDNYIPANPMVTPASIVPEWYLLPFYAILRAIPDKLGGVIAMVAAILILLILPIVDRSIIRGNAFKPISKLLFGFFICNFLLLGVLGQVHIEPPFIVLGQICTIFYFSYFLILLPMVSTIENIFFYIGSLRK
Experiment: cryo-EM structure
Type: binding
Conditions: pH 8.0

Q: With `O=C1C(O)=C([C@H]2CC[C@H](c3ccc(Cl)cc3)CC2)C(=O)c2ccccc21` [atovaquone] as the compound, how does the cryo-EM structure (Qo site (cyt b; hydrogen bond to His190 of Rip1), with antimycin A, 120 µM) read?
A: Its cryo-EM structure is “Atovaquone was resolved in the Qo site in the +atovaquone+antimycin A sample”.

Q: `CCCCCCCCCCc1c(C)c(O)c(OC)c(OC)c1O` [decylubiquinol] was tested. Which cryo-EM structure (Qi site (cyt b only), 1 mM, substrate analogue) did it give?
A: The cryo-EM structure was “After its addition, decylubiquinol was resolved in the Qi site”.

Q: How did the cryo-EM structure (Qo site, possible low occupancy, 330 µM with 25 mM sodium ascorbate, quinone analogue) turn out when `CCCCCCCCCCC1=C(C)C(=O)C(OC)=C(OC)C1=O` [decylubiquinone] was run?
A: Its cryo-EM structure is “density in the Qo site increased, indicating a possible low occupancy of DQ”.
